# Source: patent US20060058504A1, “Peptides capable of inducing attraction to the axonal growth and their use for treating neurodegenerative diseases” (Centre National de la Recherche Scientific (CNRS), priority 2002, published 2006)
# “Also recorded” adds a separate entry of the source.
# Tests used:
# [1] = test system: cortical axons repelled by Sema3A secreted from the ventral spinal cord; assay: Co-culture of cortical slices and ventral spinal cord explants (axon guidance response to Sema3A); assay type: cell-based, mice; details: for Axonal length, Away / Number of axons, Away / Axonal length, Towards / Number of axons, Towards: Ctx/vSC co-culture, L1Fc 3 μg/ml, ODQ 10^−5 M; for Axonal length, Away / Number of axons, Away: growth away from spinal cord explant; for Axonal length, Towards / Number of axons, Towards: growth towards spinal cord explant; for effect of inhibitor on L1Fc-induced switch of Sema3A repulsion to attraction: inhibitor combined with L1Fc 3 μg/ml; for guidance index: qualitative index from −2 (repulsion) to +2 (attraction), L1Fc chimeras 3 μg/ml, ODQ 10^−5M; for conversion of Sema3A-induced chemorepulsion into attraction by peptide: peptide at 10^−6M
# Method: Blocks of cortex were dissected from P0 (postnatal day 0) to P2 mice and cut into 250 μm thick slices with a McIlwain tissue chopper. The ventral part of the cervical spinal cord was dissected and cut into 250 μm thick slices. Co-culture of cortical slices and ventral spinal cord explants were performed in a three-dimensional plasma clot, as described previously (Castellani et al., 2000). Cortical slices were oriented in the plasma clot as indicated in FIG. 1B to give to axons equivalent chances to be deflected away or towards the spinal cord explant. Purified wild-type or mutant L1Fc chimeras were added to the culture medium (3 μg/ml). Inhibitors of the guanylyl cyclase (ODQ, 10^−5 M, Sigma) and NOS (7NI, […], Sigma) were added to the culture medium, either alone or with wild-type L1Fc (3 μg/ml). After one or two days in vitro (DIV), the cultures were fixed with 4% paraformaldehyde (PFA) and analyzed by phase contrast microscopy (Axiovert 35-M, Zeiss). A qualitative guidance index was attributed to the co-cultures, to assess the degree of repulsive (negative values) or attractive (positive values) effects (Castellani et al., 2000). The index ranged from −2 (when most fibers grew away from the spinal cord explant) to +2 (when most fibers grew towards the explant), with intermediate situations (index of −1 and +1 for moderate guidance effects). An index of zero was attributed to the cultures showing no preferential growth. Quantitative analysis of axon length and number of axons growing from cortical slices was performed as described previously (Castellani et al., 2000). A proximal and a distal region, each of them covering a 600 μm-piece of cortical tissue were determined for each culture. All fibers extending from these two regions were counted and the length of the three longest fibers was measured, using computer analysis software (Visiolab 2000, Biocom). Immunofluorescence labeling of axons was performed using the mouse anti-phosphorylated neurofilament antibody SMI31 (Stemberger and Meyer Inc.), and Texas red-conjugated secondary anti-mouse antibody (see result obtained for number of axons and axonal length in the following tables 1 and 2).
# It has been previously developed an assay system using explants of ventral spinal cord co-cultured with cortical axons in order to determine the factors involved in axonal repulsion and attraction (Castellani et al., 2000). Using this system we have shown that Sema3A secreted from the ventral spinal cord repels cortical axons. In the presence of soluble wild-type L1Fc chimeric protein however, repulsion is switched to attraction (Castellani et al., […]). In the present study, we aimed to identify the L1 interactions underlying the switching process. As Ig domains have been implicated in binding of Ig CAMs to many of their ligands (Brümmendorf and Rathjen, 1996) we hypothesized that they would also be required for L1 Fc-mediated switching. […] L1 Fc chimeras containing pathological missense mutations affecting specific Ig domains (De Angelis et al., 1999 and FIGS. 1A, 1B) were assessed for their ability to reverse Sema3A repulsion to attraction.
# full length human L1 = target: T1, full length human L1 (Homo sapiens, UniProt P32004); assay: Binding of L1Fc chimeras to COS cells expressing wild-type L1 (immunofluorescence)
# T1 construct: transiently transfected with expression vectors encoding full length human L1; expressed in transfected cells; host or cells: COS7
# Method: (§1) The mutant L1Fc chimeras were produced and purified as described previously (De Angelis et al., 1999). Briefly, COS-7 cells were transiently transfected with 10 μg DNA per 150 mm culture dish, the soluble Fc chimeric protein was allowed to accumulate in the media for 6 days and was recovered and purified by protein A-Sepharose affinity chromatography. In the binding experiments, L1Fcs were cross-linked to anti-human Fc antibodies (50 μg/ml, Jackson Immunoresearch) for 1 hr at 37° C. Binding detection to NP-1 requested concentrations of L1Fcs 10 folds higher than L1. Antibody conjugated L1-Fc protein was then incubated with monolayers of COS7 cells transiently transfected with expression vectors encoding full length human L1 or myc-tagged NP-1 where the cytoplasmic domain is deleted (gift of J. Raper, 2000 and Renzi et al., 1999). Following incubation, the cells were fixed with 4% PFA, and processed for double-immunofluorescence detection. NP-1 was detected using a mouse anti-c myc antibody (clone 9E10, Sigma) and L1 using a rat monoclonal anti-L1 antibody. Secondary antibody anti-c-myc (Texas-red conjugated anti-mouse antibodies) was used to detect NP-1, anti-L1 (Texas red conjugated anti-rat antibodies) to detect L1, and anti-Fc (FITC conjugated anti-rabbit antibodies) to detect bound L1Fc chimeras. After secondary antibody incubation, the cells were washed with PBS and mounted in Mowiol (Calbiochem).
# Thus, Ig CAMs F3 and TAG-1 (the rodent homologue of axonin-1) ate unlikely to be axonal receptors for L1Fc in the reversion process. […] In the present study however, mutated L1Fc proteins were required to interact with wild-type L1 expressed on growth cones. To formally exclude a role for homophilic binding of L1 in the initiation of the reversion process, it was therefore necessary to examine whether homophilic binding of the mutated L1Fc chimeras to wild-type L1 was also disrupted. Mutated L1Fcs were therefore incubated with COS7 cells transfected with full-length wild-type L1 cDNA and binding was assessed by immunofluorescence. In parallel, homophilic binding of mutant/mutant and mutant/wild-type L1Fcs was compared in a two-color FACS aggregation assay, allowing a quantitative assessment to be made (see Methods). […] Similarly, in the two color FACS assay homophilic binding was restored to 74.4% and 90.5% of wild-type levels for A426D and H210Q respectively (FIG. 2B). […] This mutation however still promoted the L1 Fc induced switching of Sema3A repulsion to attraction in the co-culture assay. Thus, the ability of L1Fc to switch Sema3A repulsion is not dependent on homophilic binding. Consequently, the trans interaction of L1Fc with L1 in the receptor complex is not required for the change in growth cone responsiveness to Sema3A.
# NP-1 = assay: Binding of L1Fc chimeras to NP-1 expressing COS7 cells (immunofluorescence)
# Method: as §1
# Next, we examined the ability of the mutant L1 Fc chimeras to bind NP-1. COS7 cells were transfected with a vector encoding the extracellular and transmembrane domains of NP-1 fused to a myc tag (ANP-1, Renzi et al., J. Neurosci., 15:7870-7880, 1999), and incubated with the mutant L1Fc chimeras. Binding was detected by immunofluorescence. […] Binding of L120V, G121S and A426D L1Fcs to NP-1 is illustrated in FIG. 3.
# L1 = details: mutant bound to itself; cited from earlier work
# T1 sequence (P32004 20-1257): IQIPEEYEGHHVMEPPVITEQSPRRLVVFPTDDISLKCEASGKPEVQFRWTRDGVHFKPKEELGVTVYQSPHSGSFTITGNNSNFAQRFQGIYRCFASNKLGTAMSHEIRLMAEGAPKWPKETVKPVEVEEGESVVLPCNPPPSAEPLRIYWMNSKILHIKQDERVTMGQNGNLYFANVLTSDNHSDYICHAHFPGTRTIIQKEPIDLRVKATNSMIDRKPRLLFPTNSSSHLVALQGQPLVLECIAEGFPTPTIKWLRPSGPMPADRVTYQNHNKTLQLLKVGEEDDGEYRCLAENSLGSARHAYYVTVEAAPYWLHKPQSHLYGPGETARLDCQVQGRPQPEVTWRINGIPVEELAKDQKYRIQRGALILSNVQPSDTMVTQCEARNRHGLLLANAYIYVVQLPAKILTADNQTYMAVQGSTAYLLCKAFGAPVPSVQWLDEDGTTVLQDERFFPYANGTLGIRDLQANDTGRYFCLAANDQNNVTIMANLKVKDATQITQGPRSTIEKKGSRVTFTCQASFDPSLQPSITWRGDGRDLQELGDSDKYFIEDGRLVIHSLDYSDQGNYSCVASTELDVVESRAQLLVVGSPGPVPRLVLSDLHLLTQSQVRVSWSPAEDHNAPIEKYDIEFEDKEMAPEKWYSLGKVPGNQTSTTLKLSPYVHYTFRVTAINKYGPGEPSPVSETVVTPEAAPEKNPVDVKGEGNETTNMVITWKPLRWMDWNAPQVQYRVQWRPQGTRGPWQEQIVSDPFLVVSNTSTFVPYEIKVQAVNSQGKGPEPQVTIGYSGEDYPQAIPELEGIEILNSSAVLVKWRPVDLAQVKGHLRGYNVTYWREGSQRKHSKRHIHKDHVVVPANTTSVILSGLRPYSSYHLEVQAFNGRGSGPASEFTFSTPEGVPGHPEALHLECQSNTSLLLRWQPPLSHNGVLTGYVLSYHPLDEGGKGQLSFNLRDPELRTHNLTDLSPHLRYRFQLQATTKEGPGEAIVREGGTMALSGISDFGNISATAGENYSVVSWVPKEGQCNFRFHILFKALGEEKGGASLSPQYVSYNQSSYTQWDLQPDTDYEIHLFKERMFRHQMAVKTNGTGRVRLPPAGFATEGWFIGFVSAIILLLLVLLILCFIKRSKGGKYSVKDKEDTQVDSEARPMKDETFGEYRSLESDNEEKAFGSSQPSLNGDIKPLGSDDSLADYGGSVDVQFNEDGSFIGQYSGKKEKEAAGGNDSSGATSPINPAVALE
Molecule,"Axonal length, Away [1]","Number of axons, Away [1]","Axonal length, Towards [1]","Number of axons, Towards [1]",effect of inhibitor on L1Fc-induced switch of Sema3A repulsion to attraction [1],guidance index [1],conversion of Sema3A-induced chemorepulsion into attraction by peptide [1],further results
"O=[N+]([O-])c1cccc2cn[nH]c12 [7NI, 7 nitroindazole, reference compound]",407.6 +/− 5,25.6 +/− 1.6,"203.1 +/− 6, *","5 +/− 0.6, *",did block L1Fc-mediated chemoattraction; also recorded: prevented the L1 Fc induced switching of Sema3A from repulsion to attraction,−1.6,,
"O=c1onc2cnc3ccccc3n12 [ODQ, 1H-(1,2,4)oxadiazolo(4,3-a)quinoxalin-1-one, reference compound]",384.1 +/− 7,25.2 +/− 1.8,"206.9 +/− 8, *","5.1 +/− 0.5, *^",reversion was prevented; also recorded: prevented the L1 Fc induced switching of Sema3A from repulsion to attraction,−1.6,,
"ASNKL (Description of the Artificial sequence Derived from the human amino-acid sequence of L1 Ig1 domain) [ASNKL120, five amino-acid peptide from L1 Ig1 domain]",,,,,,,successfully converted Sema3A-induced chemorepulsion into attraction,
FASNKLGTAM (Description of the Artificial sequence Derived from the human amino-acid sequence of L1 Ig1 domain) [ten amino-acid peptide from L1 Ig1 domain],,,,,,,successfully converted Sema3A-induced chemorepulsion into attraction,
"H210Q: L1Fc chimera with missense mutation H210Q in Ig domain 2 (protein, left off: a dimerising Fc or GST) IQIPEEYEGHHVMEPPVITEQSPRRLVVFPTDDISLKCEASGKPEVQFRWTRDGVHFKPKEELGVTVYQSPHSGSFTITGNNSNFAQRFQGIYRCFASNKLGTAMSHEIRLMAEGAPKWPKETVKPVEVEEGESVVLPCNPPPSAEPLRIYWMNSKILHIKQDERVTMGQNGNLYFANVLTSDNHSDYICQAHFPGTRTIIQKEPIDLRVKATNSMIDRKPRLLFPTNSSSHLVALQGQPLVLECIAEGFPTPTIKWLRPSGPMPADRVTYQNHNKTLQLLKVGEEDDGEYRCLAENSLGSARHAYYVTVEAAPYWLHKPQSHLYGPGETARLDCQVQGRPQPEVTWRINGIPVEELAKDQKYRIQRGALILSNVQPSDTMVTQCEARNRHGLLLANAYIYVVQLPAKILTADNQTYMAVQGSTAYLLCKAFGAPVPSVQWLDEDGTTVLQDERFFPYANGTLGIRDLQANDTGRYFCLAANDQNNVTIMANLKVKDATQITQGPRSTIEKKGSRVTFTCQASFDPSLQPSITWRGDGRDLQELGDSDKYFIEDGRLVIHSLDYSDQGNYSCVASTELDVVESRAQLLVVGSPGPVPRLVLSDLHLLTQSQVRVSWSPAEDHNAPIEKYDIEFEDKEMAPEKWYSLGKVPGNQTSTTLKLSPYVHYTFRVTAINKYGPGEPSPVSETVVTPEAAPEKNPVDVKGEGNETTNMVITWKPLRWMDWNAPQVQYRVQWRPQGTRGPWQEQIVSDPFLVVSNTSTFVPYEIKVQAVNSQGKGPEPQVTIGYSGEDYPQAIPELEGIEILNSSAVLVKWRPVDLAQVKGHLRGYNVTYWREGSQRKHSKRHIHKDHVVVPANTTSVILSGLRPYSSYHLEVQAFNGRGSGPASEFTFSTPEGVPGHPEALHLECQSNTSLLLRWQPPLSHNGVLTGYVLSYHPLDEGGKGQLSFNLRDPELRTHNLTDLSPHLRYRFQLQATTKEGPGEAIVREGGTMALSGISDFGNISATAGENYSVVSWVPKEGQCNFRFHILFKALGEEKGGASLSPQYVSYNQSSYTQWDLQPDTDYEIHLFKERMFRHQMAVKTNGTGRVRLPPAGFATE",,,,,,,,switching of Sema3A repulsion to attraction by L1Fc chimera ([1]; chimera 3 μg/ml in culture medium): able to reverse Sema3A repulsion to attraction; also recorded: efficiently induce switching of Sema3A repulsion to attraction; binding to wild-type L1 expressed in COS cells (full length human L1): bound to wild-type L1; binding to NP-1 expressing cells (NP-1): bound NP-1 expressing cells; effect of mutation on homophilic binding (L1): affect homophilic
